Measurements taken from patent US20250170266A1 (ZYMEWORKS BC INC., priority 2022, published 2025).
Where two headings read alike, the source gives them in different places.

Columns and labels:
Type in all cases: cell-based
[1] = tested on: Human peripheral blood mononuclear cells (PBMCs); experiment: Human PBMC Assay, cytokine release (HTRF); details: PBMC, 24 hours
From the text: Human peripheral blood mononuclear cells (PBMCs) were isolated from fresh Leukopak using magnetic separation. Briefly, erythrocytes and granulocytes were magnetically labeled with Erythrocyte Depletion MicroBeads (Miltenyi Biotec) and Granulocyte Depletion MicroBeads (Miltenyi Biotec), respectively. The cell suspension was loaded onto a Multi-24 Column Block (Miltenyi Biotec) and placed in the magnetic field of a MultiMACS Cell24 Separator Plus (Miltenyi Biotec). The unlabelled PBMCs were collected in the run through. PBMCs were resuspended in CryoStor® CS10 ([…]) and frozen. On the day before the assay, PBMCs were thawed in warm assay buffer (RPMI+10% FBS) and resuspended in assay buffer+10 ng/ml hIL3 (R&D Systems). Cells were rested at 37° C.+5% CO2 overnight. The following day, cells were spun down and resuspended in fresh assay buffer. 300,000 cells were added to each well of plates containing test compound. For test compound preparation, each compound was initially diluted to 1 mM in DMSO and further diluted in assay buffer. A 4-fold 11-point titration starting from 15 μM was performed. Cells were incubated with test compound at 37° C.+5% CO2 for 24 hours before supernatant was harvested. Human interleukin 6 (hIL6), human tumor necrosis factor alpha (hTNFα), and human interferon alpha (hIFNα) were quantified in the supernatant using homogeneous time resolved fluorescence (Cisbio).
(§1) Each assay included a positive control compound (referred to herein as “benchmark,” see, e.g., TABLE 3 below, and taken from International Patent Publication No. WO2017/072662, structure shown below) and a negative control (growth medium). […] The structure of the benchmark compound from International Patent Publication No. WO 2017/072662 is as follows: […]

Mouse splenocytes = experiment: Mouse Splenocyte Assay, cytokine release (HTRF); details: Splenocyte, 24 hours, mIL6 in supernatant, read-out: Splenocyte IL6 EC50
Protocol: Mouse splenocytes were isolated from fresh mouse spleens. Briefly, spleens were harvested from female balb/c nude mice and transferred to a 70 μm cell strainer. The cell strainer was subsequently placed in a 6-well suspension culture plate containing 5 mL media (RPMI+10% FBS). The spleens were crushed against the cell strainer using the flat end of a 10 mL syringe plunger and the cell strainer was washed with 5 mL media. The cell strainer was discarded, and the cell suspension was washed in PBS. Red blood cells were removed using PharmaLyse (BD). The cell suspension was washed in media, resuspended in CryoStor® CS10 ([…]) and frozen. On assay day, mouse splenocytes were thawed in warm assay buffer (RPMI+10% FBS). Cells were spun down and resuspended in fresh assay buffer. 100,000 cells were added to each well of plates containing test compound. For test compound preparation, each compound was initially diluted to 1 mM in DMSO and further diluted in assay buffer. A 4-fold 11-point titration starting from 15 μM was performed. Cells were incubated with test compound at 37° C.+5% CO2 for 24 hours before supernatant was harvested. Murine IL6 (mIL6) and murine TNFα (mTNFα) were quantified in the supernatant using homogeneous time resolved fluorescence (Cisbio).
as §1

hTLR7 = biological target: T1, hTLR7 (Homo sapiens, UniProt Q9NYK1); experiment: Reporter Gene Assay (RGA), HEK-Blue hTLR7 reporter cells, SEAP readout; details: overnight incubation, SEAP absorbance 620 nm
T1 construct: host or cells: HEK-Blue hTLR7 reporter cells (HEK293-derived, own knowledge)
T1 sequence (Q9NYK1 27-1049): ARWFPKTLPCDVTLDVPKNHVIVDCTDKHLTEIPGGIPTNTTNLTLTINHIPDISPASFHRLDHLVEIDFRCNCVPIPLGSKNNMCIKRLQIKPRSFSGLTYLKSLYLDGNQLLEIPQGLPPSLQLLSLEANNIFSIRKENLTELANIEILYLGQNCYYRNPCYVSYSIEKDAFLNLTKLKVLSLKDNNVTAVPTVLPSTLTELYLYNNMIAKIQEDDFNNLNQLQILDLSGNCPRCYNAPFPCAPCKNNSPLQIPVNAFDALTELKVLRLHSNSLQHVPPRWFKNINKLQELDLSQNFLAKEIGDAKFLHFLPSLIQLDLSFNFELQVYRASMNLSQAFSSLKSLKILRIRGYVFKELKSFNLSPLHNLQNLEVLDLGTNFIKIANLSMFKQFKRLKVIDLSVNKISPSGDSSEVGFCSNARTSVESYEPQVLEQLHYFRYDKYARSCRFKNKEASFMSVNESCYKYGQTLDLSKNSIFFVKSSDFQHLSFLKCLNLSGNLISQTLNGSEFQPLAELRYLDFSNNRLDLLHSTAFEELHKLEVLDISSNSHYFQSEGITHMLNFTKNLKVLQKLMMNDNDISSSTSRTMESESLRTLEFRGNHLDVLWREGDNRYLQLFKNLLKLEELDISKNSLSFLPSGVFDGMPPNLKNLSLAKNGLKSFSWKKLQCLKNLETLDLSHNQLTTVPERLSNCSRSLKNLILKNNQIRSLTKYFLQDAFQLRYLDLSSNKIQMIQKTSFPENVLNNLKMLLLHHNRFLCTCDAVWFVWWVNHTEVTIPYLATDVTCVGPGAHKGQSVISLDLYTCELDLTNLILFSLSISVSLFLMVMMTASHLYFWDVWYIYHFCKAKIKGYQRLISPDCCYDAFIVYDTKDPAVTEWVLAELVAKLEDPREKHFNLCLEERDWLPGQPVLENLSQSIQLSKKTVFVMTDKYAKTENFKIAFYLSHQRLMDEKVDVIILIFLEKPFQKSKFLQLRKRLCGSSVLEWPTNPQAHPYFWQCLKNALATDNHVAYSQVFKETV
Protocol: (§2) 1.5×10^4 HEK-Blue™ hTLR7 (Invivogen, San Diego, CA) or HEK-Blue™ mTLR7 (Invivogen, San Diego, CA) reporter cells were treated with a titration series of test compound (4-fold titration from […], 11 points). Compounds were initially diluted to 1 mM in DMSO and subsequently serial-diluted in assay media (HEK-Blue™ Detection; Invivogen, San Diego, CA). Cells with test compound were incubated overnight at 37° C.+5% CO2, and the amount of secreted embryonic alkaline phosphatase (SEAP) was determined by measuring absorbance (620 nm) using a Synergy™ H1 microplate reader.
as §1

mTLR7 = biological target: T2, mTLR7 (Mus musculus, UniProt P58681); experiment: Reporter Gene Assay (RGA), HEK-Blue mTLR7 reporter cells, SEAP readout; details: overnight incubation, SEAP absorbance 620 nm
T2 construct: host or cells: HEK-Blue mTLR7 reporter cells (HEK293-derived, own knowledge)
T2 sequence (P58681 27-1050): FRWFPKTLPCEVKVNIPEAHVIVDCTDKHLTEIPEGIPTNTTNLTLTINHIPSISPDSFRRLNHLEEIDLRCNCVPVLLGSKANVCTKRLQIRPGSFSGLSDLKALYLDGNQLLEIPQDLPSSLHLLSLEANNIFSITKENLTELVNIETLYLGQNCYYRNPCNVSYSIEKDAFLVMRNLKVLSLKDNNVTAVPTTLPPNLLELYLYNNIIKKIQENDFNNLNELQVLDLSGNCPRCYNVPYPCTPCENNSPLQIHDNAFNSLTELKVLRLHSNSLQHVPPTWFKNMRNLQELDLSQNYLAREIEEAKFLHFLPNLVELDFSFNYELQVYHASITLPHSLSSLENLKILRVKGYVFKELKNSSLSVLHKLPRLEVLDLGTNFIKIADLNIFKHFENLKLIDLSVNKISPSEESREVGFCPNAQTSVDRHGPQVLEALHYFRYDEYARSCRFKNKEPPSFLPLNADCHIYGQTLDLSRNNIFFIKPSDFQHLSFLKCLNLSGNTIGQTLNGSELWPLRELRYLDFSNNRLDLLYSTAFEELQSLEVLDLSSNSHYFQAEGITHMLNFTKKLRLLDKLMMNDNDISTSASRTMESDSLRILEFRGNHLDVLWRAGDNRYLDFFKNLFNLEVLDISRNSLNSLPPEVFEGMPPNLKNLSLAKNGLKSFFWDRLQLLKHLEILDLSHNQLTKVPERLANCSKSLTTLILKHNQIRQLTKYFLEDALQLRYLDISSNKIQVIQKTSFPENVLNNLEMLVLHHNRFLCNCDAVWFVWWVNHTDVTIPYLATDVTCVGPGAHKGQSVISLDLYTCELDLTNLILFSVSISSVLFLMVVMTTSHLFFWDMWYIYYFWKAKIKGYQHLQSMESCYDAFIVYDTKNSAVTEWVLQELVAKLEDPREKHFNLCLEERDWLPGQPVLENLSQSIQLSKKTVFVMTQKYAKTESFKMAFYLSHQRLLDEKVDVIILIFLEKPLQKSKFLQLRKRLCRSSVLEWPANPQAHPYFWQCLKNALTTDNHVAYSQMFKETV
Protocol: as §2, §1

[2] = hIFNα in supernatant, EC50 values approximated and divided into groups, read-out: PBMC IFNa EC50
[3] = hIL6 in supernatant, read-out: PBMC IL6 EC50

Structure (SMILES) | EC50 (Mouse splenocytes) [nM] | EC50 (hTLR7) [nM] | EC50 (mTLR7) [nM] | EC50 [1, 2] [nM] | EC50 [1, 3] [nM]
CCOc1nc(N)c2nc(O)n(Cc3ccc(CNCc4ccccc4)cc3OC)c2n1 [Compound 107, 6-amino-9-(4-((benzylamino)methyl)-2-methoxybenzyl)-2-ethoxy-9H-purin-8-ol] | 33.3 | 13 | 0.3 | 0.1 to 1 | 2720
CCOc1nc(N)c2nc(O)n(Cc3ccc(CN4CCN(CCNC(=O)CC(SC[C@@H](N)C(=O)O)C(=O)O)CC4)cc3OC)c2n1 (stereo partly drawn) [Compound 113, 2-(((S)-2-amino-2-carboxyethyl)thio)-4-((2-(4-(4-((6-amino-2-ethoxy-8-hydroxy-9H-purin-9-yl)methyl)-3-methoxybenzyl)piperazin-1-yl)ethyl)amino)-4-oxobutanoic Acid] | 1180 | 187 | 662 | > 10 | 1360
CCOc1nc(N)c2nc(O)n(Cc3ccc(CNCCCCCC(=O)O)cc3OC)c2n1 [Compound 115, 6-((4-((6-amino-2-ethoxy-8-hydroxy-9H-purin-9-yl)methyl)-3-methoxybenzyl)-amino)hexanoic Acid] | 3240 | 277 | 1600 | > 10 | 2810
CCOc1nc(N)c2nc(O)n(Cc3ccc(CNCCC(=O)N[C@@H](Cc4c[nH]cn4)C(=O)O)cc3OC)c2n1 [Compound 116, (3-((4-((6-amino-2-ethoxy-8-hydroxy-9H-purin-9-yl)methyl)-3-methoxybenzyl)-amino)-propanoyl)-L-histidine] | 2180 | 184 | 1020 | > 10 | 3080
CCOc1nc(N)c2nc(O)n(Cc3ccc(CN[C@H](CO)Cc4ccccc4)cc3OC)c2n1 [Compound 118, (S)-6-amino-2-ethoxy-9-(4-(((1-hydroxy-3-phenylpropan-2-yl)amino)methyl)-2-methoxybenzyl)-9H-purin-8-ol] | 639 | 2.04 | 11.4 | 0.1 to 1 | 1400

Now from value to compound, other results behind:

EC50 (Mouse splenocytes) [nM] | EC50 (hTLR7) [nM] | EC50 (mTLR7) [nM] | Structure (SMILES) | EC50 [1, 2] [nM] | EC50 [1, 3] [nM]
71.9 | 6 | 5 | CCOc1nc(N)c2nc(O)n(Cc3ccc(CNC4CCC4)cc3OC)c2n1 [Compound 108, 6-amino-9-(4-((cyclobutylamino)methyl)-2-methoxybenzyl)-2-ethoxy-9H-purin-8-ol] | < 0.1 | 564
166 | 56 | 13.1 | CCOc1nc(N)c2nc(O)n(Cc3ccc(CNC4CC(F)(F)C4)cc3OC)c2n1 [Compound 109, 6-amino-9-(4-(((3,3-difluorocyclobutyl)amino)methyl)-2-methoxybenzyl)-2-ethoxy-9H-purin-8-ol] | 1 to 10 | 456
≥ 1000 | 112 | 184 | CCOc1nc(N)c2nc(O)n(Cc3ccc(CN4CCC(N)CC4)cc3OC)c2n1 [Compound 110, 6-amino-9-(4-((4-aminopiperidin-1-yl)methyl)-2-methoxybenzyl)-2-ethoxy-9H-purin-8-ol] | 1 to 10 | 937
20.8 | 102 | 86.9 | CCOc1nc(N)c2nc(O)n(Cc3ccc(CNCCN)cc3OC)c2n1 [Compound 111, 6-amino-9-(4-(((2-aminoethyl)amino)methyl)-2-methoxybenzyl)-2-ethoxy-9H-purin-8-ol] | 1 to 10 | 531
901 | 261 | 1520 | CCOc1nc(N)c2nc(O)n(Cc3ccc(CNCCCC[C@H](N)C(=O)O)cc3OC)c2n1 [Compound 114, N^6-(4-((6-amino-2-ethoxy-8-hydroxy-9H-purin-9-yl)methyl)-3-methoxybenzyl)-L-lysine] | > 10 | 1750
≥ 1000 | 259 | 1960 | CCOc1nc(N)c2nc(O)n(Cc3ccc(CN[C@@H](CO)C(=O)O)cc3OC)c2n1 [Compound 119, (4-((6-amino-2-ethoxy-8-hydroxy-9H-purin-9-yl)methyl)-3-methoxybenzyl)-L-serine] | > 10 | 3910
